Measurements reported in patent US10626112B2, “Heterocyclic sulfonamide derivative and medicine comprising same” (EA PHARMA CO., LTD., priority 2014, dated 2020).
pIC50: −log10 of the molar value.

What follows are molecules tested against human TRPA1 (Homo sapiens (Human), UniProt O75762) (assay: Measurement of TRPA1 antagonist activity (1): intracellular calcium increase). Settings: 293T cells transfected with human TRPA1 expression plasmid; allylisothiocyanate 20 μM stimulation; intracellular calcium fluorescence; read-out: hTRPA1 IC50.
Assay type: cell-based
Description: Measurement of TRPA1 Antagonist Activity (1)
Human TRPA1 Expression Plasmid
As cDNA encoding human TRPA1 (GenBank accession No. […]), a commercially available product was purchased (manufactured by Kazusa DNA Research Institute, clone No.: pFN21AB7348, item No.: FHC07217). Using this as a template, full-length human TRPA1 gene was amplified using the primer sequences shown below, by reaction using DNA polymerase (manufactured by Stratagene, trade name: PfuUltra High-Fidelity DNA Polymerase).
A recognition site (underlined) of restriction enzyme HindIII was added to the 5′ side, and XbaI site (underlined) was added to the 3′ side, and GTT of the template sequence was changed to termination codon TAG (bold). The obtained double stranded DNA was enzyme-digested with HindIII and XbaI, and introduced into the multicloning site of expression plasmid pcDNA3.1/zeo(+) (manufactured by Invitrogen) to construct a human TRPA1 expression plasmid.
Human embryonic kidney-derived 293T cells were cultured in Dulbecco's Modified Eagle Medium containing 10% fetal bovine serum, 10 unit penicillin, and 10 μg streptomycin, plated on a petri dish having a diameter of 10 cm at 3×10^6 cells, and cultured for 24 hr in a CO2 incubator. A reduced serum medium (manufactured by Invitrogen, trade name: OPTI-MEM, 600 μL), a gene transfer reagent (manufactured by Mirus Bio, trade name: Mirus TransIT-293, 18 μL), and human TRPA1 expression plasmid (6 μg) were mixed, the total amount of the mixture was added to the cells on the petri dish to allow for gene transfer. The cells were recovered about for 8 hr later, plated on a poly-D-lysine coated 384 well black/clear bottom plate at 12,000 cells/well, and cultured overnight.
Measurement of Intracellular Calcium Increase
The 384 well plate was recovered, and the medium was removed. A calcium-bonded fluorescent indicator (manufactured by Molecular Device, trade name: Calcium4 Assay Kit, 38 μL) dissolved in assay buffer (1×HBSS, 20 mM HEPES, pH 7.2) was added, and the cells were stained in a CO2 incubator for 1 hr. The cells were taken out at room temperature, stood for not less than 15 min, a test substance (10 μL) was added by a platereader FDSS7000 (Hamamatsu Photonics K.K.) equipped with a 384ch dispenser. After 10 min, allylisothiocyanate (12 μL) was further added at a final concentration of 20 μM, and changes in the relative fluorescence intensity after addition of allylisothiocyanate were measured for 5 min.
Test Substance Preparation
The test substance was dissolved in dimethyl sulfoxide and serially diluted with an assay buffer containing 0.1% bovine serum albumin (1×HBSS, 20 mM HEPES, pH 7.2) to a 4.8-fold concentration of the evaluation concentration. Allylisothiocyanate, which is a known TRPA1 activator, was dissolved in dimethyl sulfoxide to 100 mM, and further diluted 5-fold (100 μM) of the final concentration, like the test substance.
Calculation of Antagonist Activity
Under the test substance-free conditions, the maximum variation range of the fluorescence intensity before and after allylisothiocyanate stimulation was defined to be 100% activity rate, and the variation range before and after buffer stimulation was defined as 0% activity rate. The activity rate on addition of the test substance was determined, and the numerical value obtained by subtracting the activity rate from 100 was defined to be an inhibitory rate. IC50, which is the concentration of the test substance necessary for reaching the 50% inhibitory rate, was calculated from the sigmoid approximate curve by a spreadsheet software Excel-Fit.

human TRPA1, sequence (O75762 whole entry): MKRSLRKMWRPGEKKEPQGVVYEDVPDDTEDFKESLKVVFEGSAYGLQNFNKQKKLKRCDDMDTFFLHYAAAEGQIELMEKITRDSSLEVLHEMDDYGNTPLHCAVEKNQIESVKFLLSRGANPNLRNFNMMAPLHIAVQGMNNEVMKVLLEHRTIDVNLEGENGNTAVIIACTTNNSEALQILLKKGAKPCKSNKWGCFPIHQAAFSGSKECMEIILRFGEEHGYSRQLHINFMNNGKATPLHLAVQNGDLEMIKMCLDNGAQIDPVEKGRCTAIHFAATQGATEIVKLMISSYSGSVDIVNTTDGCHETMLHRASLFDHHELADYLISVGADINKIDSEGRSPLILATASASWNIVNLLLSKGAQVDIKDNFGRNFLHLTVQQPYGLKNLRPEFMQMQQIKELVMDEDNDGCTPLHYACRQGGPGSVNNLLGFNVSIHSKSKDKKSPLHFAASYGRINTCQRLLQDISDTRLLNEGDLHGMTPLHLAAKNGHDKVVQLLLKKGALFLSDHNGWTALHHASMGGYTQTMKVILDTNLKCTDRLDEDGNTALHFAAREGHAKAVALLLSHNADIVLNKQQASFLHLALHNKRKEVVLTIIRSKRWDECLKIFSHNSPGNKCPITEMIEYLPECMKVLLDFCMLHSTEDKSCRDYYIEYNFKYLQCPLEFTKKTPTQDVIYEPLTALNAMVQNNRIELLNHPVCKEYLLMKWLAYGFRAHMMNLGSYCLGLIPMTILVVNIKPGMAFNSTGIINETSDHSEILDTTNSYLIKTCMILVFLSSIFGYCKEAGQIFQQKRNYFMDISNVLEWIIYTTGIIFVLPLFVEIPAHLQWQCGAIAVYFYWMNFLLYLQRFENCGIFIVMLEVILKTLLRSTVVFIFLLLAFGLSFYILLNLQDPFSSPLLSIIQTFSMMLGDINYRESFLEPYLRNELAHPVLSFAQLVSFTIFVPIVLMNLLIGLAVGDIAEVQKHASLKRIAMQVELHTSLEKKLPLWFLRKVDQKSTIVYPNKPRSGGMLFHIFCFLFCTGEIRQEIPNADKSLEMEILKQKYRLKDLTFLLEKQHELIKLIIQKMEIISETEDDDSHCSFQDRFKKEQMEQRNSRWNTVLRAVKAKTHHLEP

Molecule | pIC50
O=C(NCc1ccnc(-c2cc(Cl)cs2)c1)[C@@H]1CCCN1S(=O)(=O)c1cc2ccccc2o1 [Example 277, (2S)-1-(benzofuran-2-ylsulfonyl)-N-[[2-(4-chloro-2-thienyl)-4-pyridyl]methyl]pyrrolidine-2-carboxamide] | 7.05
COC(=O)C(Oc1cccc(CNC(=O)[C@@H]2CCCN2S(=O)(=O)c2cc3cc(F)ccc3o2)c1)c1ccccc1 (stereo partly drawn) [Example 29, methyl 2-[3-[[[(2S)-1-(5-fluorobenzofuran-2-yl)sulfonylpyrrolinidine-2-carbonyl]amino]methyl]-phenoxy]-2-phenylacetate] | 6.47
O=C(NCc1cc(-c2ccc(C(F)(F)F)cn2)ccn1)[C@@H]1C[C@@H](O)CN1S(=O)(=O)c1cc2cc(F)ccc2o1 [Example 256, (2S,4R)-1-(5-fluorobenzofuran-2-yl)sulfonyl-4-hydroxy-N-[[4-[5-(trifluoromethyl)-2-pyridyl]-2-pyridyl]methyl]pyrrolidine-2-carboxamide] | 7.04
C[C@H](NS(=O)(=O)c1cc2cc(F)ccc2o1)C(=O)NCc1ccc(O)c(-c2cnc(C(F)(F)F)cn2)c1 [Example 254, (2S)-2-[(5-fluorobenzofuran-2-yl)sulfonylamino]-N-[[4-hydroxy-3-[5-(trifluoromethyl)pyrazin-2-yl]phenyl]methyl]propanamide] | 7.10
O=C(NCc1cccc(OC2CCOCC2)c1)[C@@H]1CCCN1S(=O)(=O)c1cc2cc(F)ccc2o1 [Example 33, (2S)-1-(5-fluorobenzofuran-2-yl)sulfonyl-N-[(3-tetrahydropyran-4-yloxyphenyl)methyl]-pyrrolidine-2-carboxamide] | 6.80
O=C(NCc1ccc(O)c(-c2ncc(C(F)(F)F)cn2)c1)[C@@H]1CCCN1S(=O)(=O)c1cc2ccccc2o1 [Example 213, (2S)-1-(benzofuran-2-ylsulfonyl)-N-[[4-hydroxy-3-[5-(trifluoromethyl)-pyrimidin-2-yl]phenyl]-methyl]pyrrolidine-2-carboxamide] | 7.33
N#Cc1cccc(-c2ccc(CNC(=O)[C@@H]3CCCN3S(=O)(=O)c3cc4ccccc4o3)cc2)c1 [Example 171, (2S)-1-(benzofuran-2-ylsulfonyl)-N-[[4-(3-cyanophenyl)phenyl]methyl]-pyrrolidine-2-carboxamide] | 6.29
O=C(NCc1cnnc(-c2ccc(C(F)(F)F)nc2)c1)[C@@H]1CCCN1S(=O)(=O)c1cc2ccccc2o1 [Example 209, (2S)-1-(benzofuran-2-ylsulfonyl)-N-[[6-[6-(trifluoromethyl)-3-pyridyl]pyridazin-4-yl]methyl]pyrrolidine-2-carboxamide] | 6.96
CN(C)c1cc(-c2cccc(CNC(=O)[C@@H]3CCCN3S(=O)(=O)c3cc4cc(F)ccc4o3)c2)ccn1 [Example 96, (2S)-N-[[3-[2-(dimethylamino)-4-pyridyl]phenyl]methyl]-1-(5-fluorobenzofuran-2-yl)sulfonyl-pyrrolidine-2-carboxamide] | 6.60
O=C(NCc1ccnc(-c2ccc(OCC(F)(F)F)cc2)c1)[C@@H]1CCCN1S(=O)(=O)c1cc2ccccc2o1 [Example 204, (2S)-1-(benzofuran-2-ylsulfonyl)-N-[[2-[4-(2,2,2-trifluoroethoxy)phenyl]-4-pyridyl]methyl]pyrrolidine-2-carboxamide] | 7.46

Molecules with a higher pIC50, results first:

pIC50 | Molecule
7.48 | O=C(NCc1cccc(Sc2ccc(C(F)(F)F)cc2)c1)[C@@H]1CCCN1S(=O)(=O)c1cc2ccccc2o1 [Example 321, (2S)-1-(benzofuran-2-ylsulfonyl)-N-[[3-[4-(trifluoromethyl)phenyl]sulfanylphenyl]methyl]pyrrolidine-2-carboxamide]
7.49 | O=C(NCc1ccnc(-c2ccc(F)cc2O)c1)[C@@H]1CCCN1S(=O)(=O)c1cc2ccccc2o1 [Example 121, (2S)-1-(benzofuran-2-ylsulfonyl)-N-[[2-(4-fluoro-2-hydroxy-phenyl)-4-pyridyl]methyl]pyrrolidine-2-carboxamide]
7.49 | COc1ccc(-c2cc(CNC(=O)[C@@H]3CCCN3S(=O)(=O)c3cc4cc(F)ccc4o3)ccn2)cc1 [Example 131, (2S)-1-(5-fluorobenzofuran-2-yl)sulfonyl-N-[[2-(4-methoxyphenyl)-4-pyridyl]methyl]pyrrolidine-2-carboxamide]
7.57 | O=C(NCc1cc(-c2ccc(C(F)(F)F)cn2)cnn1)[C@@H]1CCCN1S(=O)(=O)c1cc2ccccc2o1 [Example 212, (2S)-1-(benzofuran-2-ylsulfonyl)-N-[[5-[5-(trifluoromethyl)-2-pyridyl]pyridazin-3-yl]methyl]pyrrolidine-2-carboxamide]
7.68 | O=C(NCc1ccc(OC(F)(F)F)cc1)[C@@H]1CCCN1S(=O)(=O)c1cc2cc(F)ccc2o1 [Example 66, (2S)-1-(5-fluorobenzofuran-2-yl)sulfonyl-N-[[4-(trifluoromethoxy)phenyl]methyl]-pyrrolidine-2-carboxamide]
7.72 | O=C(NCc1ccc(Oc2cccc(C(F)(F)F)c2)cc1)[C@@H]1CCCN1S(=O)(=O)c1cc2cc(F)ccc2o1 [Example 51, (2S)-1-(5-fluorobenzofuran-2-yl)sulfonyl-N-[[4-[3-(trifluoromethyl)phenoxy]phenyl]-methyl]pyrrolidine-2-carboxamide]
7.89 | O=C(NCc1ccnc(-c2ccc(Cl)cc2)c1)[C@@H]1CCCN1S(=O)(=O)c1cc2ccccc2o1 [Example 198, (2S)-1-(benzofuran-2-ylsulfonyl)-N-[[2-(4-chlorophenyl)-4-pyridyl]methyl]pyrrolidine-2-carboxamide]
7.89 | CN(C(=O)OC(C)(C)C)c1ccc(-c2ccc(F)c(CNC(=O)C3CCCN3S(=O)(=O)c3cc4ccccc4o3)c2)cn1 [Example 175, tert-butyl N-[5-[3-[[[(2S)-1-benzofuran-2-ylsulfonyl)pyrrolidine-2-carbonyl]amino]methyl]-4-fluoro-phenyl]-2-pyridyl]-N-methylcarbamate]
7.92 | (2S)-1-(5-fluorobenzofuran-2-yl)sulfonyl-N-[[3-[[2-morpholino-4-pyridyl)-methoxy]phenyl]-methyl]pyrrolidine-2-carboxamide [Example 18]
8.10 | O=C(NCc1cccc(Nc2ccc(C(F)(F)F)cc2)c1)[C@@H]1CCCN1S(=O)(=O)c1cc2cc(F)ccc2o1 [Example 296, (2S)-1-(5-fluorobenzofuran-2-yl)sulfonyl-N-[[3-[4-(trifluoromethyl)anilino]phenyl]methyl]pyrrolidine-2-carboxamide]
8.28 | C[C@H](NS(=O)(=O)c1cc2cc(F)ccc2o1)C(=O)NCc1cc(-c2ccc(OC(F)(F)F)cc2)ncn1 [Example 190, (2S)-2-[(5-fluorobenzofuran-2-yl)sulfonylamino]-N-[[6-[4-(trifluoromethoxy)phenyl]pyrimidin-4-yl]methyl]propanamide]
8.66 | O=C(NCc1cccc(-c2ccc(C(F)(F)F)nc2)c1)[C@@H]1CCCN1S(=O)(=O)c1cc2c(F)cccc2o1 [Example 92, (2S)-1-(4-fluorobenzofuran-2-yl)sulfonyl-N-[[3-[6-(trifluoromethyl)-3-pyridyl]phenyl]methyl]pyrrolidine-2-carboxamide]
8.92 | O=C(NCc1cc(-c2ccc(C(F)(F)F)cn2)ccn1)[C@@H]1C[C@@H]2C[C@@H]2N1S(=O)(=O)c1cc2cc(F)ccc2o1 [Example 259, (1S,3S,5S)-4-(5-fluorobenzofuran-2-yl)sulfonyl-N-[[4-[5-(trifluoromethyl)-2-pyridyl]-2-pyridyl]methyl]-4-azabicyclo[3.1.0]hexane-3-carboxamide]
9.08 | O=C(NCc1cccc(-c2ccc(OC(F)(F)F)cc2)c1)[C@@H]1CCCN1S(=O)(=O)c1cc2cc(F)ccc2o1 [Example 158, (2S)-1-(5-fluorobenzofuran-2-yl)sulfonyl-N-[[3-[4-(trifluoromethoxy)phenyl]-phenyl]methyl]pyrrolidine-2-carboxamide]
